Assay results as given in ChEMBL document CHEMBL1133904, “Stereoselective synthesis and antibacterial evaluation of 4-amido-isothiazolidinone oxides” (Bioorg Med Chem Lett, 2001).
Values after ≈ are worked out from the molar mass of the structure shown.

How the values were obtained:
Klebsiella pneumoniae [1] = assay: In vitro antibacterial activity against Klebsiella pneumoniae; range is 1.6->100; type: functional
[2] = target: T1, Penicillin-binding protein 2 (Staphylococcus aureus, UniProt Q53729); assay: Inhibition of Penicillin-binding protein 2 (PBP2) from Staphylococcus aureus
T1 sequence (Q53729 whole entry): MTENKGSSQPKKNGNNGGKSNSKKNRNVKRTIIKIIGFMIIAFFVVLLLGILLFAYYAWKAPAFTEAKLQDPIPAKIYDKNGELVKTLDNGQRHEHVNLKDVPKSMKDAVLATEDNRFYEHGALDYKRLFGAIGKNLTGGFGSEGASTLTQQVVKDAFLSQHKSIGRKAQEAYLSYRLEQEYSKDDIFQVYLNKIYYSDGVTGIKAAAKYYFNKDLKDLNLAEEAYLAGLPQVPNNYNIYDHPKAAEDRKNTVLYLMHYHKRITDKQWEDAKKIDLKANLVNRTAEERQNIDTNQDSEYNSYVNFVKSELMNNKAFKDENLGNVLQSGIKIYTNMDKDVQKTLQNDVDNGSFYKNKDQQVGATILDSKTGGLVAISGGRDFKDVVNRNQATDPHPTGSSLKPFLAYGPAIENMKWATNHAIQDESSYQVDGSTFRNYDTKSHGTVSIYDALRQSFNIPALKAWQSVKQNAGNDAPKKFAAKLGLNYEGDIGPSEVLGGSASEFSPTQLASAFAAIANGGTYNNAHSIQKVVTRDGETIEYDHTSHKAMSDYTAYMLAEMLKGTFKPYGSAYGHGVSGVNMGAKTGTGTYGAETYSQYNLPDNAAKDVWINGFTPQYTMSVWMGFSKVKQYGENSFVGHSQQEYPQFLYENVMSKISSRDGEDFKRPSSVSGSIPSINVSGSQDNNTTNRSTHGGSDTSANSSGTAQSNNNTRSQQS

[3] = target: T2, Penicillin-binding protein 3 (Staphylococcus aureus, UniProt Q5D1F0); assay: Inhibition of Penicillin-binding protein 3 (PBP3) from Staphylococcus aureus
T2 sequence (Q5D1F0 whole entry): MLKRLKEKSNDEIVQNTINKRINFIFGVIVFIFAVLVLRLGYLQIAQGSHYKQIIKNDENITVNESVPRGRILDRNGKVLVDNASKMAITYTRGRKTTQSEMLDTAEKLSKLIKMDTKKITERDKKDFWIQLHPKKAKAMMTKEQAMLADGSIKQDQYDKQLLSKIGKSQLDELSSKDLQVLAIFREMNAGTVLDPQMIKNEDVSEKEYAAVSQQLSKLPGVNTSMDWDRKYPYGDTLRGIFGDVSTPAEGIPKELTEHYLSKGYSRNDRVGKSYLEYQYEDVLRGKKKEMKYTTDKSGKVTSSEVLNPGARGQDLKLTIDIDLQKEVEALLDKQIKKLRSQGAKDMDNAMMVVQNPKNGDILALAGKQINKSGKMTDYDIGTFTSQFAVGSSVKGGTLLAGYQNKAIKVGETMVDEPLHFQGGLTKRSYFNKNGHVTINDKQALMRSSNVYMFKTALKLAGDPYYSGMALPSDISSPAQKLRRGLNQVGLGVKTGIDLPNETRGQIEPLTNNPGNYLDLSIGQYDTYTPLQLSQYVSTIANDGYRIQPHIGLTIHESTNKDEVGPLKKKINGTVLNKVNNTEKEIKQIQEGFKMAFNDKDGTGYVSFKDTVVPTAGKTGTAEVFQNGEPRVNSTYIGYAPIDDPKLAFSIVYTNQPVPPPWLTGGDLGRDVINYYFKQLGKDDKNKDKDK

[4] = target: T3, Penicillin-binding protein 1 (Staphylococcus aureus, UniProt Q53725); assay: Inhibition of Penicillin-binding protein 1 (PBP1) from Staphylococcus aureus
T3 sequence (Q53725 whole entry): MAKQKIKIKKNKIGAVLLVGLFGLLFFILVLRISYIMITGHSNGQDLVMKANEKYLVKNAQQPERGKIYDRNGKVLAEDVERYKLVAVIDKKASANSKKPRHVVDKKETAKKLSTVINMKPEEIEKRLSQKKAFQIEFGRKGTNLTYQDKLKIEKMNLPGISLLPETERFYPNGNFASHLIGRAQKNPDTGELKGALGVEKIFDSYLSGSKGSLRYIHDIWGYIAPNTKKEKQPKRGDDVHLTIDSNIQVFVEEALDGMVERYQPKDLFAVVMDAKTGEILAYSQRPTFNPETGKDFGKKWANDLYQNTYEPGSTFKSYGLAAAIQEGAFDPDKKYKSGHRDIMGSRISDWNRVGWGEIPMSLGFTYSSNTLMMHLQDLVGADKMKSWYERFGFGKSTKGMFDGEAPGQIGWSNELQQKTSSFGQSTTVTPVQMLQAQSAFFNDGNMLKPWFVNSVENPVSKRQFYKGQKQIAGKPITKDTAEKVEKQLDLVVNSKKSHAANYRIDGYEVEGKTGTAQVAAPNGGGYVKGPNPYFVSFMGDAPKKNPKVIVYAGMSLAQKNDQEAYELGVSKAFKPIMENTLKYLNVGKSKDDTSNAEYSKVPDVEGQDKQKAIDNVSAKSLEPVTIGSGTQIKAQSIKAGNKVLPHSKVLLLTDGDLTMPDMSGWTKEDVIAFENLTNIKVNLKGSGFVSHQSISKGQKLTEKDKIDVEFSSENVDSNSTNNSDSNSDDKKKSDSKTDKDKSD

Staphylococcus aureus [5] = assay: In vitro antibacterial activity against Staphylococcus aureus; range is 1.6->100; type: functional
Streptococcus pneumoniae [6] = assay: In vitro antibacterial activity against Streptococcus pneumoniae; range is 1.6->100; type: functional
Enterobacter cloacae [7] = assay: In vitro antibacterial activity against Enterobacter cloacae; type: functional
Klebsiella pneumoniae [8] = assay: In vitro antibacterial activity against Klebsiella pneumoniae; type: functional
Moraxella catarrhalis [9] = assay: In vitro antibacterial activity against Moraxella catarrhalis; type: functional
[10] = Half life period was measured at pH 7.4 in phosphate buffer; type: ADME
Klebsiella pneumoniae [11] = assay: In vitro antibacterial activity against Klebsiella pneumoniae; range is 15.6->1000; type: functional
Moraxella catarrhalis [12] = assay: In vitro antibacterial activity against Moraxella catarrhalis; range is 15.6->1000; type: functional
Enterobacter cloacae [13] = assay: In vitro antibacterial activity against Enterobacter cloacae; range is 15.6->1000; type: functional
Enterobacter cloacae [14] = assay: In vitro antibacterial activity against Enterobacter cloacae; range is 16->1000; type: functional
Klebsiella pneumoniae [15] = assay: In vitro antibacterial activity against Klebsiella pneumoniae; range is 16->1000; type: functional
Moraxella catarrhalis [16] = assay: In vitro antibacterial activity against Moraxella catarrhalis; range is 16->1000; type: functional
Klebsiella pneumoniae [17] = assay: In vitro antibacterial activity against Klebsiella pneumoniae; range is 62.5->1000; type: functional
Staphylococcus aureus [18] = assay: In vitro antibacterial activity against Staphylococcus aureus; range is 62.5->1000; type: functional
Streptococcus pneumoniae [19] = assay: In vitro antibacterial activity against Streptococcus pneumoniae; range is 62.5->1000; type: functional
Klebsiella pneumoniae [20] = assay: In vitro antibacterial activity against Klebsiella pneumoniae; range is 2->32; type: functional
Staphylococcus aureus [21] = assay: In vitro antibacterial activity against Staphylococcus aureus; range is 2->32; type: functional
Streptococcus pneumoniae [22] = assay: In vitro antibacterial activity against Streptococcus pneumoniae; range is 2->32; type: functional
Enterobacter cloacae [23] = assay: In vitro antibacterial activity against Enterobacter cloacae; range is 31.3->1000; type: functional
Klebsiella pneumoniae [24] = assay: In vitro antibacterial activity against Klebsiella pneumoniae; range is 31.3->1000; type: functional
Moraxella catarrhalis [25] = assay: In vitro antibacterial activity against Moraxella catarrhalis; range is 31.3->1000; type: functional
Enterobacter cloacae [26] = assay: In vitro antibacterial activity against Enterobacter cloacae; range is 62.6->1000; type: functional
Klebsiella pneumoniae [27] = assay: In vitro antibacterial activity against Klebsiella pneumoniae; range is 62.6->1000; type: functional
Moraxella catarrhalis [28] = assay: In vitro antibacterial activity against Moraxella catarrhalis; range is 62.6->1000; type: functional
Enterobacter cloacae [29] = assay: In vitro antibacterial activity against Enterobacter cloacae; range is 125->1000; type: functional
Klebsiella pneumoniae [30] = assay: In vitro antibacterial activity against Klebsiella pneumoniae; range is 125->1000; type: functional
Moraxella catarrhalis [31] = assay: In vitro antibacterial activity against Moraxella catarrhalis; range is 125->1000; type: functional

Row | SMILES | IC50 [2] [µM] | IC50 [3] [µM] | IC50 [4] [µM] | MIC (Enterobacter cloacae [7]) [µg/mL] | MIC (Klebsiella pneumoniae [8]) [µg/mL] | MIC (Moraxella catarrhalis [9]) [µg/mL] | half-life [10] [h] | further results
1 | CCCCNOS(=O)(=O)N1C[C@H](NC(=O)Cc2ccccc2)C1=O | > 703 | > 703 | > 703 | – | – | – | – | MIC (Klebsiella pneumoniae [1]): 1.6 µg/mL (≈ 4.5 µM); MIC (Staphylococcus aureus [5]): 1.6 µg/mL (≈ 4.5 µM); MIC (Streptococcus pneumoniae [6]): 1.6 µg/mL (≈ 4.5 µM)
2 | CO/N=C(/C(=O)NC1CS(=O)(=O)N(CC(=O)O)C1=O)c1csc(N)n1.O=C(O)C(F)(F)F (stereo unspecified) | > 495 | > 495 | > 495 | > 64 | > 64 | > 64 | 5.6 | –
3 | O=C(CN1C(=O)C(NC(=O)Oc2ccc(Cl)cc2)CS1(=O)=O)OCc1ccccc1 (stereo unspecified) | > 552 | > 552 | > 552 | – | – | – | 5.1 | MIC (Klebsiella pneumoniae [11]): 15.6 µg/mL (≈ 34.4 µM); MIC (Moraxella catarrhalis [12]): 15.6 µg/mL (≈ 34.4 µM); MIC (Enterobacter cloacae [13]): 15.6 µg/mL (≈ 34.4 µM)
4 | CC(C)[C@@H](C(=O)O)N1C(=O)C(NC(=O)COc2ccccc2)CS1(=O)=O (stereo partly specified) | > 650 | > 650 | > 650 | – | – | – | 22 | MIC (Enterobacter cloacae [14]): 16 µg/mL (≈ 41.6 µM); MIC (Klebsiella pneumoniae [15]): 16 µg/mL (≈ 41.6 µM); MIC (Moraxella catarrhalis [16]): 16 µg/mL (≈ 41.6 µM)
5 | O=C(O)CN1C[C@H](NC(=O)COc2ccccc2)C1=O | > 898 | > 898 | > 898 | – | – | – | > 32 | MIC (Klebsiella pneumoniae [17]): 62.5 µg/mL (≈ 225 µM); MIC (Staphylococcus aureus [18]): 62.5 µg/mL (≈ 225 µM); MIC (Streptococcus pneumoniae [19]): 62.5 µg/mL (≈ 225 µM)
6 | CCCCNOS(=O)(=O)N1C(=O)[C@@H](NC(=O)COc2ccc(Cl)cc2)CS1(=O)=O | > 532 | > 532 | > 532 | > 64 | > 64 | > 64 | < 0.4 | –
7 | CC(C)[C@H](C(=O)O)N1C[C@H](NC(=O)COc2ccccc2)C1=O | > 780 | > 780 | > 780 | – | – | – | > 48 | MIC (Klebsiella pneumoniae [20]): 2 µg/mL (≈ 6.24 µM); MIC (Staphylococcus aureus [21]): 2 µg/mL (≈ 6.24 µM); MIC (Streptococcus pneumoniae [22]): 2 µg/mL (≈ 6.24 µM)
8 | CC(C)C(C(=O)OC(C)(C)C)N1C(=O)C(NC(=O)OCc2ccccc2)CS1(=O)=O (stereo unspecified) | > 568 | > 568 | > 568 | – | – | – | 15.8 | MIC (Enterobacter cloacae [23]): 31.3 µg/mL (≈ 71.1 µM); MIC (Klebsiella pneumoniae [24]): 31.3 µg/mL (≈ 71.1 µM); MIC (Moraxella catarrhalis [25]): 31.3 µg/mL (≈ 71.1 µM)
9 | CC(C(=O)OC(C)(C)C)N1C(=O)C(NC(=O)Oc2ccc(Cl)cc2)CS1(=O)=O (stereo unspecified) | > 578 | > 578 | > 578 | – | – | – | – | MIC (Enterobacter cloacae [23]): 31.3 µg/mL (≈ 72.3 µM); MIC (Klebsiella pneumoniae [24]): 31.3 µg/mL (≈ 72.3 µM); MIC (Moraxella catarrhalis [25]): 31.3 µg/mL (≈ 72.3 µM)
10 | CC(C)[C@H](C(=O)OCc1ccccc1)N1C(=O)[C@@H](NC(=O)COc2ccccc2)C[S+]1[O-] (stereo partly specified) | > 545 | > 545 | > 545 | – | – | – | < 0.5 | MIC (Enterobacter cloacae [26]): 62.6 µg/mL (≈ 137 µM); MIC (Klebsiella pneumoniae [27]): 62.6 µg/mL (≈ 137 µM); MIC (Moraxella catarrhalis [28]): 62.6 µg/mL (≈ 137 µM)
11 | CC(C(=O)O)N1C(=O)C(NC(=O)Oc2ccc(Cl)cc2)CS1(=O)=O (stereo unspecified) | > 664 | > 664 | > 664 | – | – | – | 15.7 | MIC (Enterobacter cloacae [29]): 125 µg/mL (≈ 332 µM); MIC (Klebsiella pneumoniae [30]): 125 µg/mL (≈ 332 µM); MIC (Moraxella catarrhalis [31]): 125 µg/mL (≈ 332 µM)
12 | CC(C)[C@@H](C(=O)O)N1C(=O)[C@@H](NC(=O)COc2ccccc2)C[S+]1[O-] (stereo partly specified) | > 679 | > 679 | > 679 | > 1000 | > 1000 | > 1000 | < 1.4 | –
13 | CC(C)[C@H](C(=O)O)N1C(=O)[C@@H](NC(=O)COc2ccccc2)C[S+]1[O-] (stereo partly specified) | > 679 | > 679 | > 679 | > 1000 | > 1000 | > 1000 | < 3.3 | –
14 | O=C(O)CN1C(=O)C(NC(=O)COc2ccccc2)CS1(=O)=O (stereo unspecified) | > 730 | > 730 | > 730 | > 100 | > 100 | > 100 | 11.9 | –
